From patent US8551963B2, “Imidazolothiazole compounds and methods of use thereof” (Ambit Biosciences Corporation, priority 2008, dated 2013)
Values after ≈ are worked out from the molar mass of the structure shown. Where a name gives a salt, the structure may show the parent alone. Read-outs that look alike come from different tables or passages of the source.

Columns and labels:
In vivo clearance, mouse = settings: clearance call in words
From the text: (§1) Clearance was modest in dog microsomes, and high in Cynomolgus monkey microsomes. Using a comparison of in vitro and in vivo clearance, human clearance can be predicted. The in vitro intrinsic clearance is influenced by animal weight, hepatic blood flow, relative liver weight, and amount of protein/liver weight. […] Human clearance is predicted to be low (Table 2).

[1] = In vivo clearance, monkey
From the text: as §1

In vivo clearance, rat = experiment: In vivo clearance, rat
From the text: as §1

in vitro [2] = settings: both, human, microsomes, pH 7.4
RS4;11 cells = experiment: RS4;11 cellular proliferation assay (Cell Titer Blue); type: cell-based; settings: Homo sapiens, RS4-11, 48 h, read-out: EC50 (50% inhibition of cellular proliferation)
in vitro [3] = settings: rat, microsomes, pH 7.4
In vivo clearance, dog = experiment: In vivo clearance, dog
From the text: as §1

MV4;11 cells = experiment: MV4;11 cellular proliferation assay (Cell Titer Blue); type: cell-based; settings: Homo sapiens, MV4-11, 72 h, read-out: EC50 (50% inhibition of cellular proliferation)
[4] = dog, microsomes, 1 μM, pH 7.4
[5] = Predicted human in vivo clearance; settings: predicted from comparison of in vitro and in vivo clearance
From the text: as §1

in vitro [6] = settings: dog, microsomes
in vitro [7] = settings: monkey, microsomes, pH 7.4
[8] = Microsomal stability, pooled mouse liver microsomes; type: in vitro ADME; settings: pH 7.4
Procedure: Microsomes were stored at −80° C. prior to use.
The final incubation volume was 600 μL.
The elimination rate constant (k)=(−slope)

plasma protein = experiment: Plasma protein binding assay (equilibrium dialysis); type: in vitro ADME; settings: 1 μM, equilibrium dialysis 16-20 hours at 37° C.
Procedure: Reagents: 1× Isotonic PBS (Mediatech, Inc., Herndon, Va.); 96 Well Equilibrium Dialyzer (Harvard Apparatus, Holliston, Mass.) and Animal plasma from species of interest.
1 μM solutions of test compound were prepared in both isotonic PBS and 10% animal plasma in isotonic PBS.
200 μl of each test solution was added to opposite sides of the equilibrium dialysis membrane.
Samples were incubated for 16-20 hours at 37° C.
After incubation, 100 μl sample was removed from the PBS side and diluted with 100 μl of 20% animal plasma in PBS.
100 μl sample was removed from the 10% animal plasma side and diluted with 100 μl of 10% animal plasma.
A calibration curve was prepared in 10% animal plasma to extrapolate unknown concentrations.
Samples were analyzed by LC/MS/MS.
50 μl of samples, calibration standards and quality control standards were extracted with 100 μl of acetonitrile containing 25 ng/ml of internal standard.
Calculations Calculate fraction unbound in 10% plasma Fu(10%)=1−(PC−PF)/PC) Convert 10% plasma value to 100% Fu(100%)=Fu10%/(10−9*Fu10%).

P-Glycoprotein = P-Glycoprotein (Homo sapiens (Human), UniProt P08183); experiment: Digoxin bidirectional MDR1-MDCK permeability, Compound I-1 as an inhibitor; settings: dog; for Papp A→B at 1 μM: MDCK-MDR1, pH 7.4, Digoxin PeAP→BL; for Papp B→A at 1 μM: MDCK-MDR1, pH 7.4, Digoxin PeBL→AP
[9] = Aqueous and surfactant solubility; type: physicochemical; settings: room temperature overnight
P-glycoprotein (MDR1) = experiment: in vitro; settings: dog
MDR1-MDCK cells = settings: dog, MDCK-MDR1, 10 μM, pH 7.4
[10] = Microsomal stability and metabolic turnover, pooled rat liver microsomes; settings: pH 7.4
[11] = Microsomal stability and metabolic turnover, pooled dog liver microsomes; settings: pH 7.4
[12] = Microsomal stability and metabolic turnover, pooled Cynomolgus monkey liver microsomes; settings: pH 7.4
[13] = Microsomal stability and metabolic turnover, pooled human liver microsomes; settings: both, pH 7.4
[14] = in vivo, read-out: In Vivo t1/2 (converted)
[15] = Table 17, Digoxin 1 μM alone, Std
[16] = Table 17, Digoxin 1 μM alone, Surf.
[17] = preliminary experiment, Digoxin 1 μM alone, Std
[18] = preliminary experiment, Digoxin 1 μM alone, Surf.

Chain of P-Glycoprotein (P08183 whole entry): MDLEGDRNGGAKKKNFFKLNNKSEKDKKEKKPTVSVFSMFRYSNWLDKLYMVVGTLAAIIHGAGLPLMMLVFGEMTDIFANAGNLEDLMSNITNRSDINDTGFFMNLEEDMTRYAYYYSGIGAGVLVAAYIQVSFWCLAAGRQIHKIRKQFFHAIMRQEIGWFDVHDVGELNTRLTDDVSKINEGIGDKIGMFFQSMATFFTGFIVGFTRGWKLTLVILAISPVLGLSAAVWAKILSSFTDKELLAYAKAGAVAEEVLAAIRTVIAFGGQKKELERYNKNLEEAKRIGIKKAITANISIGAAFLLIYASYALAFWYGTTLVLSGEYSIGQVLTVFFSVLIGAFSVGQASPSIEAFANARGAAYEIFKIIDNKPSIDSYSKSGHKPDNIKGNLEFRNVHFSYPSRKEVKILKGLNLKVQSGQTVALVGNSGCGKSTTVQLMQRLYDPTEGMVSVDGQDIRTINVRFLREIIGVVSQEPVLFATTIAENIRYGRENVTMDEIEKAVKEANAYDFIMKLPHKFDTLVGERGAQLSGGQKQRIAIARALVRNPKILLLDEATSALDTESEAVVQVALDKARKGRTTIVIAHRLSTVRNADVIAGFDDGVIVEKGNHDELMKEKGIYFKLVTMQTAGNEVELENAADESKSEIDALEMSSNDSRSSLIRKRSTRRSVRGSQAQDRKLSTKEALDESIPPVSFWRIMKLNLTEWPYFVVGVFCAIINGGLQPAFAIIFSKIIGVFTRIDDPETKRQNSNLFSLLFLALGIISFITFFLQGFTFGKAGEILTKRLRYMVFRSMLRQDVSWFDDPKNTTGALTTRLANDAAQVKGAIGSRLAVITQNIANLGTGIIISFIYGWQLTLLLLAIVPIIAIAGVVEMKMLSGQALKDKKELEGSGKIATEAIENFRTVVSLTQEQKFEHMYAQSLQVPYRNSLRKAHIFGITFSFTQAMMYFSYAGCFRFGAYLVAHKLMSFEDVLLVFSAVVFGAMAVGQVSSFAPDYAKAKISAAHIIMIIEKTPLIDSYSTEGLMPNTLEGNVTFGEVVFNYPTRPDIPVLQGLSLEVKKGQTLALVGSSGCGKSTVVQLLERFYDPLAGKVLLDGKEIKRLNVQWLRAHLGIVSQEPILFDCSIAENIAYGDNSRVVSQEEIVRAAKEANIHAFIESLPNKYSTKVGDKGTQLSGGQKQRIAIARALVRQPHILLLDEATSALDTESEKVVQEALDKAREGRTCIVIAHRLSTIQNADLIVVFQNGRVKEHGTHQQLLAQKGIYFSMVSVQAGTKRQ

SMILES: CC(C)(C)c1cc(NC(=O)Nc2ccc(-c3cn4c(n3)sc3cc(OCCN5CCOCC5)ccc34)cc2)no1 [Compound IA, N-(5-tert-butyl-isoxazol-3-yl)-N′-{4-[7-(2-morpholin-4-yl-ethoxy)imidazo[2,1-b][1,3]benzothiazol-2-yl]phenyl}urea]
- In Vivo Cl (In vivo clearance, mouse): Low
- In Vivo Cl ([1]; clearance call in words): High
- half-life [1, 14]: 162 min
- In Vivo Cl (In vivo clearance, rat; clearance call in words): Low
- half-life (In vivo clearance, rat; [14]): 414 min
- half-life at 1 μM (in vitro [2]): > 60 min
- microsomal CLint at 1 μM (in vitro [2]): < 23 µL/min/mg
- EC50 (RS4;11 cells): 4 nM
- half-life at 1 μM (in vitro [3]): > 60 min
- microsomal CLint at 1 μM (in vitro [3]): < 23 µL/min/mg
- In Vivo Cl (In vivo clearance, dog; clearance call in words): Modest
- half-life (In vivo clearance, dog; [14]): 366 min
- EC50 (MV4;11 cells): 0.6 nM
- half-life [4]: 24 min
- In Vivo Cl [5]: low and Low
- microsomal CLint at 1 μM (in vitro [6]; pH 7.4): 42 µL/min/mg
- half-life at 1 μM (in vitro [6]; pH 7.4, Half-life): 33 min
- half-life at 1 μM (in vitro [7]): 19 min
- microsomal CLint at 1 μM (in vitro [7]): 73 µL/min/mg
- half-life at 1 μM ([8]; mouse, microsomes): > 60 min
- microsomal CLint at 1 μM ([8]; mouse, microsomes): < 23 µL/min/mg

SMILES: CC(C)(C)c1cc(NC(=O)Nc2ccc(-c3cn4c(n3)sc3cc(OCCN5CCOCC5)ccc34)cc2)no1 [Compound IA, hydrochloride salt, N-(5-tert-butyl-isoxazol-3-yl)-N′-{4-[7-(2-morpholin-4-yl-ethoxy)imidazo[2,1-b][1,3]benzothiazol-2-yl]phenyl}urea, reference compound]
- Percentage of unbound compound in 10% plasma (plasma protein): 17%

SMILES: C[C@H]1O[C@@H](O[C@H]2[C@@H](O)C[C@H](O[C@H]3[C@@H](O)C[C@H](O[C@H]4CC[C@@]5(C)[C@H](CC[C@@H]6[C@@H]5C[C@@H](O)[C@]5(C)[C@@H](C7=CC(=O)OC7)CC[C@]65O)C4)O[C@@H]3C)O[C@@H]2C)C[C@H](O)[C@@H]1O [Digoxin, reference compound]
- Papp A→B at 1 μM (P-Glycoprotein; [15]): 8.76 ×10⁻⁶ cm/s
- Papp A→B at 1 μM (P-Glycoprotein; [16]): 2.21 ×10⁻⁶ cm/s
- Papp A→B at 1 μM (P-Glycoprotein; [17]): 0.24 ×10⁻⁶ cm/s
- Papp A→B at 1 μM (P-Glycoprotein; [18]): 2.91 ×10⁻⁶ cm/s
- Papp B→A at 1 μM (P-Glycoprotein; [15]): 29.3 ×10⁻⁶ cm/s
- Papp B→A at 1 μM (P-Glycoprotein; [16]): 4.93 ×10⁻⁶ cm/s
- Papp B→A at 1 μM (P-Glycoprotein; [17]): 20 ×10⁻⁶ cm/s
- Papp B→A at 1 μM (P-Glycoprotein; [18]): 6.03 ×10⁻⁶ cm/s

SMILES: CC(=O)N1CCN(c2ccc(OCC3COC(Cn4ccnc4)(c4ccc(Cl)cc4Cl)O3)cc2)CC1 (stereo not drawn) [Ketoconazole]
- solubility ([9]; HBSS containing 0.05% Polysorbate 80, 2.5% DMSO, read-out: Average Aqueous Solubility, 0.05% Polysorbate 80): 86 µM (≈ 45.7 µg/mL)
- solubility ([9]; HBSS pH 7.4, 2.5% DMSO, read-out: Average Aqueous Solubility, pH 7.4): 18 µM (≈ 9.57 µg/mL)

SMILES: CC(C)NCC(O)COc1cccc2[nH]ccc12 (stereo not drawn) [Pindolol]
- efflux ratio at 10 μM (P-glycoprotein (MDR1); MDCK-MDR1, pH 7.4, Assymetry Index): 1
- Papp A→B at 10 μM (P-glycoprotein (MDR1); MDCK-MDR1, pH 7.4, PeAP→BL): 31.7 ×10⁻⁶ cm/s
- Papp B→A at 10 μM (P-glycoprotein (MDR1); MDCK-MDR1, pH 7.4, PeBL→AP): 30.6 ×10⁻⁶ cm/s

SMILES: CNC(=C[N+](=O)[O-])NCCSCc1ccc(CN(C)C)o1 [Ranitidine]
- Assymetry Index (MDR1-MDCK cells): 1.9
- PeAP→BL (MDR1-MDCK cells): 1.63 ×10⁻⁶ cm/s
- PeBL→AP (MDR1-MDCK cells): 3.02 ×10⁻⁶ cm/s

SMILES: COC(=O)[C@H]1[C@H]2C[C@@H]3c4[nH]c5cc(OC)ccc5c4CCN3C[C@H]2C[C@@H](OC(=O)c2cc(OC)c(OC)c(OC)c2)[C@@H]1OC [Reserpine]
- solubility ([9]; HBSS buffer with 0.05% Polysorbate 80, pH 7.4, aqueous with cosolvent or surfactant or cyclodextrin, kinetic from dmso stock, HBSS containing 0.05% Polysorbate 80, 2.5% DMSO, read-out: Average Aqueous Solubility, 0.05% Polysorbate 80): 5 µM (≈ 3.04 µg/mL)
- solubility ([9]; Hank's balanced salt solution (HBSS) buffer, aqueous buffer, kinetic from dmso stock, HBSS pH 7.4, 2.5% DMSO, read-out: Average Aqueous Solubility, pH 7.4): < 1 µM

SMILES: C[C@]12CC[C@H]3[C@@H](CCC4=CC(=O)CC[C@@]43C)[C@@H]1CC[C@@H]2O [Testosterone]
- half-life at 1 μM [10]: 4 min
- half-life at 1 μM [11]: 60 min
- half-life at 1 μM [12]: 3 min
- half-life at 1 μM [13]: 11 min
- half-life at 1 μM ([8]; mouse liver microsomes, 1 μM, 0.5 mg/mL, NADPH, read-out: Half-life): 6 min
